According to patent US9862713B2, “Substituted bicyclic heteroaryl compounds as RXR agonists” (CONNEXIOS LIFE SCIENCES PVT. LTD., priority 2014, dated 2018):

Legend:
db/db mice = experiment: Effect of RXR agonist on db/db mice; type: in vivo; conditions: 2.5, 5, 10 and 15 mg/kg, BID, po
Method: The male db/db and lean mice were procured from Jackson Laboratory, US laboratories, acclimatized for a week, were fed a standard laboratory diet. The lean control and the db/db mice were 8 weeks old at the start of the study and were randomized to either vehicle or drug (Compound 40, 2.5, 5, 10 and 15 mg/kg, BID, po) treatment groups by body weight, fed glucose and glucose AUC during an oral glucose tolerance test. The treatment was continued for 8 weeks. Body weight, fasting and fed glucose and fast triglycerides (tail snip) were monitored weekly. At the end of week 8 of the treatment, glucose and insulin HbAlc levels were followed at different time intervals. Blood samples collected from tail nipping method were subjected at the end of week 7 of treatment period measured for HbAlc levels by DCA vantage (SIEMENS).
Assessment of 24 h glucose profile: Fed state blood samples were collected by tail nipping method and measured for glucose levels at every 2 h time intervals up to 8 h and then followed by 4 h intervals at the end of week 7 of treatment.

ob/ob mice = experiment: Effect of RXR agonist on ob/ob mice; type: in vivo; conditions: 3, 10 and 30 mg/kg, BID, po; 4 weeks
Method: The male ob/ob and lean mice were procured from Harlon laboratories, acclimatized for a week, were fed a standard laboratory diet. The lean control and the ob/ob mice were 16 weeks old at the start of the study and were randomized to either vehicle or drug (Compound 40, 3, 10 and 30 mg/kg, BID, po) treatment groups by body weight, fed glucose and glucose AUC during an oral glucose tolerance test. The treatment was continued for 4 weeks. Fed glucose and fast triglycerides (tail snip) were monitored weekly. At the end of week 4 of the treatment, Animals were sacrificed […] terminal measurement of fasting glycerol, free fatty acid, cholesterol, LDL levels.

Male Wistar rats = experiment: Isoprenaline induced cardiac hypertrophy in rats; type: in vivo; conditions: 10 mg/kg, p.o., q.d., 11 weeks
Method: Male Wistar rats of fourteen weeks age were housed under controlled temperature 22±3° C., relative humidity 50-70%, 12 hour light and 12 hour dark cycle with artificial fluorescent tubes. Animals were acclimatized for seven days. On eight day animals were randomized based on their body weights and allotted into nine animals/group. Different groups into which animals allotted were G1: Vehicle control, G2: Isoprenaline control (5 mg/kg, s.c. twice a week) and G3: Isoprenaline (5 mg/kg, s.c. twice a week)+Compound 40 (10 mg/kg, p.o., q.d.). Treatment with Compound 40 (10 mpk) for G3 group was started one week prior to isoprenaline administration and both the treatments were continued for eleven weeks. The animals were monitored for daily feed consumption and weekly body weight throughout the study. At the end of treatment period (Week 11) five animals from each group were subjected to Cardiovascular hemodynamic assessment by Millar catheter using MPVS Ultra control interface connected to AD power lab, AD instruments. Different parameters measured were heart rate, stroke work, stroke volume, cardiac output, left ventricular systolic pressure, left ventricular diastolic pressure, left ventricular diastolic volume Immediately after hemodynamic estimation terminal blood from all the animals were collected followed by the collection of hearts. All the separated serum samples were used for estimation of several cardiac markers like ANP, BNP, CRP, LDH, CKN, CKMB and SGOT. Collected hearts were examined for histopathological changes and gene expression studies. All the numerical output was expressed as Mean±SEM, one way ANOVA followed by Dunnets' test using Graph pad prism software.

[1] = system: HL-60 promyelocytic leukemia cell line; experiment: HL-60 differentiation (NBT reduction); type: cell-based; conditions: 72 h culture
Method: Progression of promyelocytic leukemia can be abrogated by their differentiation. […] In order to estimate the differentiating ability of compound-40, HL-60 promyelocytic leukemia cell line was used as an in vitro model of the disease. HL-60 cells were cultured for 72 h as either control or under treatment as mentioned. After 72 h of culture, cells were exposed to nitro blue tetrazolium (NBT) solution containing phorbol myristate acetate (PMA) for 1 h at 37° C. Differentiated cells have increased oxidative burst potential which reduces NBT. Levels of reduced NBT were measured at 540 nm absorption.

MIA PaCa-2 cells [2] = experiment: ROS level (DCFH-DA probe) in MIA PaCa-2 cells; type: cell-based; conditions: 4 days treatment
Method: To assess the impact of Compound 40 on ROS level, the cells were exposed to ROS indicator probe (DCFH-DA) for 1 h. ROS induced increase in DCF fluorescence was estimated at 485 nm excitation and 528 nm emission. ROS levels were normalized to cellular DNA levels which were measured by using bis-benzamide fluorescence at 360 nm excitation and 460 nm emission. The ROS levels are represented at % of control. […] Over-expression of RXRa further augmented the ROS levels.

MIA PaCa-2 cells [3] = experiment: BrdU incorporation assay in MIA PaCa-2 cells; type: cell-based; conditions: 3 uM
Method: Impact of compound-40 on cell proliferation was further evaluated by BrdU incorporation assay. MIA PaCa-2 cells were grown for 4 days in presence or absence of compound-40 (3 uM). After treatment with vehicle control or compound-40 (3 uM), cells were exposed to BrdU. BrdU incorporation was measured using a commercially available kit (Roche) as per manufacturer's protocol.

[4] = system: mouse neuronal cells (N2A cells); experiment: Cholesterol-treated neuronal cells (N2A), in vitro data for Alzheimer's disease; type: cell-based; conditions: 320 uM cholesterol
Method: In order to study the impact of Compound 40 on Alzheimer's Disease, cultured mouse neuronal cells (N2A cells) were treated with 320 uM cholesterol alone or with test molecule for 24 h. Cholesterol was removed and treatment is continued for 24 h. Cholesterol content in the cells was measured by biochemical methods, normalized to total protein. For gene expression studies, cells were treated with 320 uM cholesterol alone or with test molecule for 48 h. RNA was made and later converted to cDNA and the gene expression was measured. […] These cellular events lead to reduced plaque formation and improvement in the health of neuronal cells.

Question: What does the source list for `CC1(C)CCC(C)(C)c2sc(N(CC3CC3)c3ccc(C(=O)O)cn3)nc21` [Compound 40, 6-[(Cyclopropylmethyl) (4,4,7,7-tetramethyl-4,5,6,7-tetrahydro-1,3-benzothiazol-2-yl)amino]pyridine-3-carboxylic acid]?
Answer: post-prandial blood glucose levels (db/db mice; 8 weeks): significantly reduced post-prandial blood glucose levels; HbAlc levels (db/db mice; end of week 7): steep and dose dependent reduction; glucose excursion during the prandial phase (24 h glucose profile) (db/db mice; end of week 7): significantly reduced glucose excursion; LDL-c (ob/ob mice): decreasing LDL-c; prandial hyperglycemia (fed glucose) (ob/ob mice): both an early onset and sustained control of prandial hyperglycemia; total cholesterol (ob/ob mice): significantly decreased total cholesterol; absolute heart weight (Male Wistar rats; isoprenaline 5 mg/kg, s.c. twice a week): substantial reduction; Stroke volume (SV) (Male Wistar rats; isoprenaline): significant improvement; Stroke work (SW) (Male Wistar rats; isoprenaline): significant improvement; cardiac output (Male Wistar rats; isoprenaline): improved; ejection fraction (Male Wistar rats; isoprenaline): improved; heart rate (Male Wistar rats; isoprenaline): improved; thickness of the septum (Male Wistar rats; isoprenaline): significant reduction; thickness of the ventricular wall (Male Wistar rats; isoprenaline): significant reduction; ventricular refilling (Male Wistar rats; isoprenaline): improvement in ventricular refilling; HL-60 cells differentiation ([1]; NBT reduction at 540 nm): significantly increased; HL-60 differentiation in combination with ATRA ([1]; together with ATRA): additive effect with ATRA; ROS levels (MIA PaCa-2 cells [2]): significant augmentation of stress levels; BrdU incorporation (MIA PaCa-2 cells [3]; 4 days): significantly reduced; BrdU incorporation in RXRa over-expressing MIA PaCa-2 (MIA PaCa-2 cells [3]; RXRa over-expressing cells): further reduced the BrdU incorporation; apoptosis (Caspase activity) [4]: decreased apoptosis; cholesterol accumulation (cholesterol content in the cells) [4]: reduced cholesterol accumulation; oxidative stress (ROS levels) [4]: reduced oxidative stress; cholesterol efflux (ABCA1 and ABCG1 expression) ([4]; 48 h): increased the cholesterol efflux
